Measurements from US6352988B2, “Indane or dihydroindole derivatives” (H. Lundbeck A/S, priority 1996, dated 2002).

Molecular target: T1, dopamine D4 receptors in cloned human dopamine receptor subtype 4.2 membranes (Homo sapiens, UniProt P21917, DEL271-302)
T1 sequence (P21917 with tags, fused parts or gaps DEL271-302): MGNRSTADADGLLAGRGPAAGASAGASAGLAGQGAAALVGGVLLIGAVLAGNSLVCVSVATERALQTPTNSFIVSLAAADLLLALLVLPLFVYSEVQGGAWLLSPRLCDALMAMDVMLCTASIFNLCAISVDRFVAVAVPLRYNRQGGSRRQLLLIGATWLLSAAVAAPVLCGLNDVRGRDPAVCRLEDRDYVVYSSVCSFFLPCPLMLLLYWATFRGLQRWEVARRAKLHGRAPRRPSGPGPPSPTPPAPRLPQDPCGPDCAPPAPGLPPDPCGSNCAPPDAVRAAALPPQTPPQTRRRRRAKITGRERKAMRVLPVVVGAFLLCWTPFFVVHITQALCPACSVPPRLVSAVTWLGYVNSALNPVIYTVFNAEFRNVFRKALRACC
Assay: 3H-YM-09151-2 binding (affinity for dopamine D4 receptors)
Details: 3H-YM-09151-2, cloned human D4.2 membranes; for IC50: * means that the test result is preliminary, read-out: D4-bind. IC50
Protocol: By this method the inhibition by drugs of the binding of the dopamine D4 antagonist ^3H-YM-09151-2 to dopamine D4 receptors in cloned human dopamine receptor subtype 4.2 membranes is determined in vitro. Accordingly, this is a test for affinity for dopamine D4 receptors. The test is performed using a preparation of cloned dopamine D4 cell membranes CRM-016®, Dupharma A/S, Denmark, in accordance with the product specifications.

Compound	IC50	inhibition at 0.05 µM (at 50 nM, read-out: D4-bind. % inhibition of binding at 50 nM)
CC(=O)N1CC(CCN2CC=C(c3c[nH]c4cc(Cl)ccc34)CC2)c2ccccc21 (single isomer, unassigned; (+)) [Compound 34a]	4 nM	
C1=C(c2c[nH]c3ccccc23)CCN(CC2CCc3ccccc32)C1 (centres unmarked) [Compound 5a, 3-[1-(1-Indanylmethyl)-1,2,3,6-tetrahydropyridin-4-yl]-1H-indole]	3.5 nM	
c1ccc2c(c1)CCC2CN1CCC(c2c[nH]c3ccccc23)CC1 (centres unmarked) [Compound 5b, 3-[1-(1-Indanylmethyl)piperindin-4-yl]-1H-indole]	5 nM	
COc1cccc2c1C(CN1CC=C(c3c[nH]c4cc(Cl)ccc34)CC1)CC2 (centres unmarked) [Compound 5c, 6-Chloro-3-[1-(7-methoxyindan-1-yl)methyl-1,2,3,6-tetrahydropyridin-4-yl]-1H-indole]	32 nM	
COc1ccc2c(c1)C(CN1CC=C(c3c[nH]c4ccccc34)CC1)CC2 (centres unmarked) [Compound 5d, 3-[1-(6-methoxyindan-1-yl)methyl-1,2,3,6-tetrahydropyridin-4-yl]-1H-indole]	20 nM	
N#Cc1ccc2c(c1)C(CN1CC=C(c3c[nH]c4cc(Cl)ccc34)CC1)CC2 (centres unmarked) [Compound 6a, 6-Chloro-3-[1-(6-cyano-1-indanylmethyl)-1,2,3,6-tetrahydropyridin-4-yl]-1H-indole]	6.8 nM	
N#Cc1ccc2c(c1)C(CN1CCC(c3c[nH]c4cc(Cl)ccc34)CC1)CC2 (centres unmarked) [Compound 6b, 6-Chloro-3-[1-(6-cyano-1-indanylmethyl)piperidin-4-yl]-1H-indole]	3.3 nM	
CC(=O)Nc1ccc2c(c1)CCC2CN1CC=C(c2c[nH]c3cc(Cl)ccc23)CC1 (centres unmarked) [Compound 6d, 6-Chloro-3-[1-(5-acetylamino-1-indanylmethyl)-1,2,3,6-tetrahydropyridin-4-yl]-1H-indole]	30 nM	
Clc1ccc2c(C3=CCN(CC4CCc5ccc(Br)cc54)CC3)c[nH]c2c1 (centres unmarked) [Compound 6e, 6-Chloro-3-[1-(6-bromo-1-indanylmethyl)-1,2,3,6-tetrahydropyridin-4-yl]-1H-indole]	84 nM	
Fc1ccc2[nH]cc(C3CCN(CCC4CCc5ccccc54)CC3)c2c1 (centres unmarked) [Compound 8c, 5-fluoro-3-[1-[2-(indan-1-yl)ethyl]-piperidin-4-yl]-1H-indole]	2.3 nM	
Fc1ccc2[nH]cc(C3CCN(CCCCC4CCc5ccccc54)CC3)c2c1 (centres unmarked) [Compound 8e, 5-fluoro-3-[1-[4-(indan-1-yl)butan-1-yl]-piperidin-4-yl]-1H-indole]	8.3 nM	
Clc1ccc2c(C3CCN(CCCCC4CCc5ccccc54)CC3)c[nH]c2c1 (centres unmarked) [Compound 8f, 6-Chloro-3-[1-[4-(indan-1-yl)butan-1-yl)-piperidin-4-yl]-1H-indole]	12 nM	
Clc1ccc2c(C3=CCN(CCCC4CCc5ccccc54)CC3)c[nH]c2c1 (centres unmarked) [Compound 8g, 6-Chloro-3-[1-[3-(indan-1-yl)propan-1-yl]-1,2,3,6-tetrahydropyridin-4-yl]-1H-indole]	14 nM	
Clc1ccc2c(C3=CCN(CCCCC4CCc5ccccc54)CC3)c[nH]c2c1 (centres unmarked) [Compound 8h]	34 nM	
Clc1ccc2c(C3=CCN(CC4Cc5ccccc5C4)CC3)c[nH]c2c1 [Compound 11a, 6-Chloro-3-[1-(indan-2-yl)methyl-1,2,3,6-tetrahydropyridin-4-yl]-1H-indole]	2.8 nM	
Clc1cccc2c(C3=CCN(CC4Cc5ccccc5C4)CC3)c[nH]c12 [Compound 11c, 7-Chloro-3-[1-(indan-2-yl)methyl-1,2,3,6-tetrahydropyridin-4-yl]-1H-indole]	3.8 nM	
c1ccc2c(c1)CC(CN1CCN(c3ccc4[nH]ccc4c3)CC1)C2 [Compound 11f, 5-[4-(Indan-2-yl)methylpiperazin-1-yl]-1H-indole]	1.6 nM	
Clc1ccc2c(C3=CCN(CC4CCc5ccc6[nH]ccc6c54)CC3)c[nH]c2c1 (centres unmarked) [Compound 16a, 8-[4-(6-Chloro-1H-indol-3-yl)-1,2,3,6-tetrahydropyridin-1-ylmethyl]-3,6,7,8-tetrahydro-cyclopent[e]indole]	6.2 nM	
CC(=O)Nc1cccc2c1CC(CN1CC=C(c3c[nH]c4cc(Cl)ccc34)CC1)C2 (centres unmarked) [Compound 18a, 6-Chloro-3-[1-(4-acetylaminoindan-2-yl)methyl-1,2,3,6-tetrahydropyridine-4-yl]-1H-indole]	7.5 nM	

Compound	IC50	inhibition at 0.05 µM (at 50 nM, read-out: D4-bind. % inhibition of binding at 50 nM)
CC(=O)Nc1cccc2c1CC(CN1CCC(c3c[nH]c4cc(Cl)ccc34)CC1)C2 (centres unmarked) [Compound 18b, 6-Chloro-3-[1-(4-acetylaminoindan-2-yl)methylpiperidin-4-yl]-1H-indole]	4.3 nM	
CC(=O)Nc1ccc2c(c1)C(CCN1CC=C(c3c[nH]c4cc(Cl)ccc34)CC1)CC2 (centres unmarked) [Compound 18c]	41 nM	
CC(=O)Nc1ccc2c(c1)C(CCCN1CC=C(c3c[nH]c4cc(Cl)ccc34)CC1)CC2 (centres unmarked) [Compound 18d, 6-Chloro-3-[1-[3-(6-acetylaminoindan-1-yl)propan-1-yl]-1,2,3,6-tetrahydropyridin-4-yl]-1H-indole]	7.3 nM	
CC(=O)Nc1ccc2c(c1)C(CCCCN1CC=C(c3c[nH]c4cc(Cl)ccc34)CC1)CC2 (centres unmarked) [Compound 18e, 6-Chloro-3-[1-[4-(6-acetylaminoindan-1-yl)butan-1-yl]-1,2,3,6-tetrahydropyridin-4-yl]-1H-indole]	66 nM	
CC(=O)N1CC(CCN2CC=C(c3c[nH]c4cc(Cl)ccc34)CC2)c2ccccc21 (centres unmarked) [Compound 20a, 3-[1-[2-(1-Acetyl-2,3-dihydro-1H-indol-3-yl)ethyl]-1,2,3,6-tetrahydropyridin-4-yl]-6-chloro-1H-indole]	3.1 nM	
CC(=O)N1CC(CCN2CCC(c3c[nH]c4cc(Cl)ccc34)CC2)c2ccccc21 (centres unmarked) [Compound 20b, 3-[1-[2-(1-Acetyl-2,3-dihydro-1H-indol-3-yl)ethyl]piperidin-4-yl]-6-chloro-1H-indole]	6.7 nM	
O=CN1CC(CCN2CC=C(c3c[nH]c4cc(Cl)ccc34)CC2)c2ccccc21 (centres unmarked) [Compound 20c, 6-Chloro-3-[1-[2-(1-formyl-2,3-dihydro-1H-indol-3-yl)ethyl]-1,2,3,6-tetrahydropyridin-4yl]-1H-indole]	2.4 nM	
O=CN1CC(CCN2CCC(c3c[nH]c4cc(Cl)ccc34)CC2)c2ccccc21 (centres unmarked) [Compound 20d, 6-Chloro-3-[1-[2-(1-formyl-2,3-dihydro-1H-indol-3-yl)ethyl]piperidin-4-yl]-1H-indole]	3 nM	
CC(=O)N1CC(CCN2CC=C(c3c[nH]c4cc(Cl)ccc34)CC2)c2cc(Br)ccc21 (centres unmarked) [Compound 20e, 3-[1-[2-(1-Acetyl-5-bromo-2,3-dihydro-1H-indol-3-yl)ethyl]-1,2,3,6-tetrahydropyridin-4yl]-6-chloro-1H-indole]		21%
CC(=O)N1CC(CCN2CC=C(c3c[nH]c4c(Cl)cccc34)CC2)c2ccccc21 (centres unmarked) [Compound 20f, 3-[1-[2-(1-Acetyl-2,3-dihydro-1H-indol-3-yl)ethyl]-1,2,3,6-tetrahydropyridin-4-yl]-7-chloro-1H-indole]	3.2 nM	
CC(=O)N1CC(CCN2CC=C(c3c[nH]c4c(Cl)c(Cl)ccc34)CC2)c2ccccc21 (centres unmarked) [Compound 20g, 3-[1-[2-(1-Acetyl-2,3-dihydro-1H-indol-3-yl)ethyl]-1,2,3,6-tetrahydropyridin-4-yl]-6,7-dichloro-1H-indole]	16 nM	
CC(=O)N1CC(CCN2CC=C(c3c[nH]c4cc5c(cc34)OCO5)CC2)c2ccccc21 (centres unmarked) [Compound 20h, 3-[1-[2-(1-Acetyl-2,3-dihydro-1H-indol-3-yl)ethyl]-1,2,3,6-tetrahydropyridin-4-yl]-5,6-methylenedioxy-1H-indole]	30 nM	
CC(C)(C)OC(=O)N1CC(CCN2CC=C(c3c[nH]c4cc(Cl)ccc34)CC2)c2ccccc21 (centres unmarked) [Compound 20i, 3-[1-[2-(1-tert-Butoxycarbonyl-2,3-dihydro-1H-indol-3-yl)ethyl]-1,2,3,6-tetrahydropyridin-4-yl]-6-chloro-1H-indole]	2.9 nM	
CC(=O)N1CC(CCN2CCN(c3ccc4[nH]ccc4c3)CC2)c2ccccc21 (centres unmarked) [Compound 20j, 5-[4-[2-(1-Acetyl-2,3-dihydro-1H-indol-3-yl)ethyl]piperazin-1-yl]-1H-indole]	6.9 nM	
CC(=O)N1CC(CCCN2CC=C(c3c[nH]c4cc(Cl)ccc34)CC2)c2ccccc21 (centres unmarked) [Compound 20k, 3-[1-[3-(1-Acetyl-2,3-dihydro-1H-indol-3-yl)propyl]-1,2,3,6-tetrahydropyridin-4-yl]-6-chloro-1H-indole]	10 nM	
CC(=O)N1CC(CCN2CC=C(c3c[nH]c4cc(Cl)ccc34)CC2)c2cc(C)ccc21 (centres unmarked) [Compound 20m, 3-[1-[2-(1-Acetyl-5-methyl-2,3-dihydro-1H-indol-3-yl)ethyl]-1,2,3,6-tetrahydropyridin-4-yl]-6-chloro-1H-indole]	8.4 nM	
Clc1ccc2c(C3CCN(CC4Cc5ccccc5C4)CC3)c[nH]c2c1 [Compound 21a, 6-Chloro-3-[1-(indan-2-ylmethyl)piperidin-4yl]-1H-indole]	0.48 nM	
Clc1cccc2c(C3CCN(CC4Cc5ccccc5C4)CC3)c[nH]c12 [Compound 21c, 7-Chloro-3-[1-(indan-2-ylmethyl)piperidin-4-yl]-1H-indole]	1.8 nM	
c1ccc2c(c1)CC(CCN1CCN(c3cccc4[nH]ccc34)CC1)C2 [Compound 25a, 4-[4-[2-(Indan-2-yl)ethyl]piperazin-1-yl]-1H-indole]	2.7 nM	
